Laboratory results from patent US12065436B2, “Cardiac sarcomere inhibitors” (Cytokinetics, Inc., priority 2018, dated 2024).
Like-named read-outs stand apart in the source and are kept apart here.

Tests used:
[1] = system: rat cardiac contractility (left ventricle fractional shortening); experiment: Echocardiography of acute effect on rat cardiac contractility, oral gavage; format: in vivo, Sprague Dawley rats; details: for inhibition in vivo at 6 mg/kg / IC50 / inhibition in vivo at 2 mg/kg: Rattus norvegicus; for inhibition in vivo at 6 mg/kg / inhibition in vivo at 2 mg/kg: oral gavage; for IC50 / IC10: oral dosing, estimated; for IC50: plasma concentration at which fractional shortening is 50% of pre-dose baseline; for IC10: plasma concentration at which
Protocol: (§1) Assessment of in vivo cardiac function by echocardiography was performed in male Sprague Dawley rats under isoflurane (1-3%) anesthesia. 2-D M-mode images of the left ventricle were acquired in the parasternal long-axis view before, during, and after administration of compounds by continuous IV infusion or oral gavage. In vivo fractional shortening was determined by M-mode image analysis with the following calculation: ((End diastolic diameter−end systolic diameter)/end diastolic diameter×100). For continuous IV infusion experiments, three pre-dose baseline M-mode images were taken at 1 minute intervals prior to infusion of compound. Compounds were formulated in 50% Propylene Glycol (PG): 16% Captisol: 10% dimethylacetamide (DMA) and delivered via a jugular vein catheter at the rate of 1 mL/kg/h. During infusion, M-mode images were taken at 5 minute intervals. The infusion stopped when fractional shortening reached up to a 60% reduction from baseline. Blood samples were taken to determine the plasma concentration of the compounds. Data was reported as an estimated IC50 value, which is the concentration at which fractional shortening is 50% of the pre-dose baseline contractility.
For oral dosing studies, three pre-dose baseline M-Mode images were taken at 1 minute intervals prior to compound administration. Compounds were formulated in a 0.5% hydroxypropyl methylcellulose 2910 (HPMC 2910): 0.1% Tween 80 suspension and delivered as a single dose (5 mL/kg) by oral gavage. Rats were lightly anesthetized for M-Mode echocardiography measurements at select time points over a 24 hour period. Different dose levels were evaluated for each compound. The compound effect on cardiac fractional shortening at the highest dose evaluated is presented in Table D as a percent reduction of baseline fractional shortening (=100%).
Concurrent with echocardiography measurements, blood samples were taken to determine the corresponding compound plasma concentration.

[2] = system: adult cardiac ventricular rat myocytes; experiment: Adult ventricular myocyte contractility (fractional shortening); format: cell-based; details: 5 min, 5 min perfusion, read-out: % FS (% reduction from baseline) ± SEM; for inhibition at 5 µM: 5 μM compound
Protocol: Adult male Sprague-Dawley rats were anesthetized and the hearts were quickly excised, rinsed and the ascending aorta was cannulated. Continuous retrograde perfusion was initiated on the hearts at a perfusion pressure of 60 cm H2O. Hearts were first perfused with a nominally Ca^2+-free modified Krebs solution of the following composition: 113 mM NaCl, 4.7 mM KCl, 0.6 mM KH2PO4, 0.6 mM Na2HPO4, 1.2 mM MgSO4, 12 mM NaHCO3, 10 mM KHCO3, 30 mM taurine, 5.5 mM glucose and 10 mM Hepes (all Sigma). This medium is not recirculated and is continually aerated with a 95% O2/5% CO2 mixture. After approximately 3 minutes the heart was perfused with a modified Krebs buffer supplemented with collagenase (Worthington) and 12.5 μM final calcium concentration. The heart was removed from the cannulae after the heart appeared blanched and soft in appearance. The atria and vessels were removed and the ventricles were gently dissected into smaller pieces with forceps. The tissue was homogenized by repeated pipette trituration and the collagenase reaction was stopped by 10% bovine calf serum (BCS), sedimentation and resuspension in perfusion buffer containing 5% BCS and 12.5 uM CaCl2). Myocytes were made calcium tolerant by stepwise addition of a CaCl2) solution to a final concentration of 1.2 mM. Cells were then washed and resuspended in Tyrode's buffer (137 mM NaCl, 3.7 mM KCl, 0.5 mM MgCl, 11 mM glucose, 4 mM Hepes, and 1.2 mM CaCl2), pH 7.4). Cells were kept for 60 min at 37° C. prior to initiating experiments and used within 5 hrs of isolation. […] Additionally, only cells whose basal contractility was between 3 and 8% were used in subsequent experiments with compounds.
Aliquots of myocytes in Tyrode's buffer were placed in perfusion chambers (series 20 RC-27NE; Warner Instruments) complete with heating platforms. Myocytes were allowed to attach, the chambers were heated to 37° C., and the cells were perfused with 37° C. Tyrode's buffer. Myocytes were field stimulated at 1 Hz in with platinum electrodes (20% above threshold). Only cells that had clear striations and were quiescent prior to pacing were used for contractility experiments. To determine basal contractility, myocytes were imaged through a 40× objective. […] Once cell contraction was stable over time, test compounds (0.01-15 μM) were perfused into the chambers on the myocytes for 5 minutes. Contractility of the myocytes and contraction and relaxation velocities were then recorded using edge detection.
Five or more individual myocytes were tested per compound from two or more different myocyte preparations. For each cell, twenty or more contractility transients at basal (defined as 1 min prior to compound infusion) and after compound addition (defined as 5 min after starting compound perfusion), were averaged and compared. These average transients were analyzed using the IonWizard software (IonOptix) to determine changes in diastolic length and fractional shortening. Fractional shortening was calculated as: ((resting length−length at peak contraction) divided by the resting length). The percent change in fractional shortening from baseline was calculated as: ((post-dose fractional shortening/basal fractional shortening)*100). The percent reduction in fractional shortening from baseline was calculated as: (100−percent change in fractional shortening from baseline). Maximum contraction and relaxation velocities (um/sec) was also determined. Results from individual cells are averaged and the SEM calculated.

[3] = system: rat cardiac contractility (left ventricle fractional shortening); experiment: Echocardiography of acute effect on rat cardiac contractility, continuous IV infusion; format: in vivo, Sprague Dawley rats; details: Rattus norvegicus, plasma concentration at which fractional shortening is 50% of pre-dose baseline, estimated, read-out: IC50 (Mean ± S.D.)
Protocol: as §1

[4] = target: bovine cardiac myofibrils (full-length cardiac myosin ATPase in the native sarcomere) (Bos taurus (Bovine), UniProt Q9BE39); experiment: Skinned bovine cardiac myofibril ATPase assay (PK/LDH-coupled); format: biochemical; details: Ca2+ activating to 75% of maximal rate; for CDMF75 IC15: concentration giving 15% inhibition; for IC50: read-out: CDMF75 IC50
Sequence of bovine cardiac myofibrils (full-length cardiac myosin ATPase in the native sarcomere) (Q9BE39 whole entry): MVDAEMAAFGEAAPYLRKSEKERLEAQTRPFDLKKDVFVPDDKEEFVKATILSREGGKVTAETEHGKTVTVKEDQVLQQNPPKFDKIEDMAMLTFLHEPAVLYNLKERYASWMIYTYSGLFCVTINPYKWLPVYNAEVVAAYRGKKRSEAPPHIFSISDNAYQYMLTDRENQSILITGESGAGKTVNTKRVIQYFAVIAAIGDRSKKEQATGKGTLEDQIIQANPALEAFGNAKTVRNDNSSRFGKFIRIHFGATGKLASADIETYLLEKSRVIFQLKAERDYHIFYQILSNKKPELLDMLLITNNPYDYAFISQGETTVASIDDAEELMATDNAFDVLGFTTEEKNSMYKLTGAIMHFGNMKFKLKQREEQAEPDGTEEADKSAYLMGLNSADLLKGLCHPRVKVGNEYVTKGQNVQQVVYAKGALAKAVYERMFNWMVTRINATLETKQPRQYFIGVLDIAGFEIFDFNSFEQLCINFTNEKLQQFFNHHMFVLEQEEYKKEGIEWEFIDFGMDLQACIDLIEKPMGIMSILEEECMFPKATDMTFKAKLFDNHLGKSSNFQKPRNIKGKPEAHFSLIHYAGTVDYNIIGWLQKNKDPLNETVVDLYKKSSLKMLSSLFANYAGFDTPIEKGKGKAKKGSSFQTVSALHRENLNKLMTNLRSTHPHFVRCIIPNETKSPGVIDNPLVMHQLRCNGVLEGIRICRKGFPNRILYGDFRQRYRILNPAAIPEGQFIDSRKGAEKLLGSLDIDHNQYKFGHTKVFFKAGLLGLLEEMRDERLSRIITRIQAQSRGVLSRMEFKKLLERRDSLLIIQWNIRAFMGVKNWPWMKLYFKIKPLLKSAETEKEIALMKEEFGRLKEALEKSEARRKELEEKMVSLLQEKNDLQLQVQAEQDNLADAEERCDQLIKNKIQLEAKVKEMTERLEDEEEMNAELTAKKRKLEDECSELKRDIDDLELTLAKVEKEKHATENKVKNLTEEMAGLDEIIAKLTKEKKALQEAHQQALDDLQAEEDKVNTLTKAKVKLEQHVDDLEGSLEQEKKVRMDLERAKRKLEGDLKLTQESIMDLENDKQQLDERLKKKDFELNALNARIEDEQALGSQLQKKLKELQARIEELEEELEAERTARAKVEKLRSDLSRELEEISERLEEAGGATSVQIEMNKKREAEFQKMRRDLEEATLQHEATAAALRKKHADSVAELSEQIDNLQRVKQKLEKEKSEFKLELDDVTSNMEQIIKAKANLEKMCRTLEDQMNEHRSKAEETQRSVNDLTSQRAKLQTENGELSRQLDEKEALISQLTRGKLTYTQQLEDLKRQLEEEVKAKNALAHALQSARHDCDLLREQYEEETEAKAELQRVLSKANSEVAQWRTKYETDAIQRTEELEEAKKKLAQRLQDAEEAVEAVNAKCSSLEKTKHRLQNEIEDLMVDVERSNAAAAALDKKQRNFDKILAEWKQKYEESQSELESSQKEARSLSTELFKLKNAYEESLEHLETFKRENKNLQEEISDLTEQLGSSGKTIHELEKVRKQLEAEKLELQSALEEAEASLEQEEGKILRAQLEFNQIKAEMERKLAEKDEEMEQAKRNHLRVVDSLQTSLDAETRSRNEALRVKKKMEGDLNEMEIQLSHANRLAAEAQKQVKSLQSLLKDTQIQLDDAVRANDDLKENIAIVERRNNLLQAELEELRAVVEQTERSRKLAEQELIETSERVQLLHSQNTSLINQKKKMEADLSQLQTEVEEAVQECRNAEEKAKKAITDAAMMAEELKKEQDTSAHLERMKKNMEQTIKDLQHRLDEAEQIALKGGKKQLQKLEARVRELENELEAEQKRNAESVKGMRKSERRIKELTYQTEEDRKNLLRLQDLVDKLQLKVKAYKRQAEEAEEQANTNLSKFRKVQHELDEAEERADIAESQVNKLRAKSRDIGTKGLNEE
Sequence of bovine cardiac myofibrils (full-length cardiac myosin ATPase in the native sarcomere) (P85100 whole entry partner): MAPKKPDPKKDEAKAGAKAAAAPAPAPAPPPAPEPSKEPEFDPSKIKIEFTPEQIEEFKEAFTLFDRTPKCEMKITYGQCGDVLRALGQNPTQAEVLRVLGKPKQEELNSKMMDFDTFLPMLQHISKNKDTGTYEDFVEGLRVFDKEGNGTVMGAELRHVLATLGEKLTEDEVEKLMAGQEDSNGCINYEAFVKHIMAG
Sequence of bovine cardiac myofibrils (full-length cardiac myosin ATPase in the native sarcomere) (Q3SZE5 whole entry partner): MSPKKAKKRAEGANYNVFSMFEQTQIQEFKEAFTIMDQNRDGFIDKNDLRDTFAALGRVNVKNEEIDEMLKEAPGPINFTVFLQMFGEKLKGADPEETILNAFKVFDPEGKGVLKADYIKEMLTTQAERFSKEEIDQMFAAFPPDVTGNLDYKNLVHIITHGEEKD
How it was run: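 Triton-skinned bovine left-ventricle myofibrils (1 mg/mL) in PM 12 buffer (12 mM PIPES, 2 mM MgCl2, pH 6.8) with 50 μM ATP, 0.6 mM EGTA and CaCl2 set for 50% or 75% activation. Steady-state ATPase inhibition followed by PK/LDH-coupled NADH oxidation at 340 nm.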

[5] = 1 h, 1-2 h post dose, read-out: FS (% reduction from baseline) at 1-2 h post dose (Mean ± S.D.)
[6] = 4 h post dose, read-out: FS (% reduction from baseline) at 4 h post dose (Mean ± S.D.)

| Compound | inhibition in vivo at 6 mg/kg [1, 5] | IC50 [1] | inhibition in vivo at 6 mg/kg [1, 6] | IC10 [1] | inhibition at 5 µM [2] | IC50 [3] | CDMF75 IC15 [4] | IC50 [4] | inhibition at 10 µM ([2]; 10 μM compound) | inhibition in vivo at 2 mg/kg [1, 5] | inhibition in vivo at 2 mg/kg [1, 6] |
| --- | --- | --- | --- | --- | --- | --- | --- | --- | --- | --- | --- |
| Cc1ncc(C(=O)N[C@@H]2CCc3cc(-c4noc(C(F)F)n4)ccc32)o1 [Compound 100, (R)—N-(5-(5-(difluoromethyl)-1,2,4-oxadiazol-3-yl)-2,3-dihydro-1H-inden-1-yl)-2-methyloxazole-5-carboxamide] | 60 ± 4% | 9100 nM | 40 ± 3% | 2300 nM | 54.7% | 8100 ± 260 nM | 700 nM | 3000 nM | – | – | – |
| Cn1nccc1C(=O)N[C@@H]1COc2cc(-c3noc(C(F)F)n3)ccc21 [Compound 124, (S)—N-(6-(5-(difluoromethyl)-1,2,4-oxadiazol-3-yl)-2,3-dihydrobenzofuran-3-yl)-1-methyl-1H-pyrazole-5-carboxamide] | – | – | – | – | – | 700 ± 20 nM | 300 nM | 900 nM | 84.6% | – | – |
| CCc1nc(-c2ccc3c(c2)CC[C@H]3NC(=O)c2cnn(C)c2)no1 [Compound 184, (R)—N-(5-(5-ethyl-1,2,4-oxadiazol-3-yl)-2,3-dihydro-1H-inden-1-yl)-1-methyl-1H-pyrazole-4-carboxamide] | – | 7900 nM | – | 800 nM | 67.4% | 7200 ± 200 nM | – | – | – | 43 ± 9% | 31 ± 9% |
